Data as given in PubChem BioAssay AID2060610 (Molecular Pharmacology Branch, DTP, NCI, 2025).
“And” between values parts separate entries of the source, which are not always exact repeats. Equal values may be shown once.

Test system: 616215-338-R-J1-PDC complex spheroids, viability % test/control
Experiment: Anticancer human tumor 616215-338-R-J1-PDC patient-derived colon adenocarcinoma cell line growth inhibition [CLK]
Details: for viability, T/C: stronger effect = lower value; active = viability on the fitted dose curve at most 10% of control; inactive = the rest
How it was run: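 Multi-cell-type spheroids combined patient-derived tumor cells with HUVEC endothelial cells and human mesenchymal stem cells. Paired agents were dosed in half-log steps down from about clinical Cmax, or from 10 microM where Cmax was unknown.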

[1] = curve of first compound, second compound 0.0316 µM
[2] = curve of first compound, second compound 0.1 µM
[3] = curve of first compound, second compound 0.316 µM
[4] = curve of first compound, second compound 1 µM
[5] = curve of first compound, second compound 3.16 µM
[6] = curve of first compound, second compound 10 µM
[7] = second compound 0.0316 µM, first compound 0.0316 µM
[8] = second compound 0.0316 µM, first compound 0.1 µM
[9] = second compound 0.0316 µM, first compound 0.316 µM
[10] = second compound 0.0316 µM, first compound 1 µM
[11] = second compound 0.0316 µM, first compound 3.16 µM
[12] = second compound 0.0316 µM, first compound 10 µM
[13] = second compound 0.1 µM, first compound 0.0316 µM
[14] = second compound 0.1 µM, first compound 0.1 µM
[15] = second compound 0.1 µM, first compound 0.316 µM
[16] = second compound 0.1 µM, first compound 1 µM
[17] = second compound 0.1 µM, first compound 3.16 µM
[18] = second compound 0.1 µM, first compound 10 µM
[19] = second compound 0.316 µM, first compound 0.0316 µM
[20] = second compound 0.316 µM, first compound 0.1 µM
[21] = second compound 0.316 µM, first compound 0.316 µM
[22] = second compound 0.316 µM, first compound 1 µM
[23] = second compound 0.316 µM, first compound 3.16 µM
[24] = second compound 0.316 µM, first compound 10 µM
[25] = second compound 1 µM, first compound 0.0316 µM
[26] = second compound 1 µM, first compound 0.1 µM
[27] = second compound 1 µM, first compound 0.316 µM
[28] = second compound 1 µM, first compound 1 µM
[29] = second compound 1 µM, first compound 3.16 µM
[30] = second compound 1 µM, first compound 10 µM
[31] = second compound 3.16 µM, first compound 0.0316 µM
[32] = second compound 3.16 µM, first compound 0.1 µM
[33] = second compound 3.16 µM, first compound 0.316 µM
[34] = second compound 3.16 µM, first compound 1 µM
[35] = second compound 3.16 µM, first compound 3.16 µM
[36] = second compound 3.16 µM, first compound 10 µM
[37] = second compound 10 µM, first compound 0.0316 µM
[38] = second compound 10 µM, first compound 0.1 µM
[39] = second compound 10 µM, first compound 0.316 µM
[40] = second compound 10 µM, first compound 1 µM
[41] = second compound 10 µM, first compound 3.16 µM
[42] = second compound 10 µM, first compound 10 µM
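Note: spheroids exposed to agents for 7 days.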
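Throughout, for viability, T/C: 100% = DMSO vehicle wells.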

C=CC(=O)Nc1cc(Nc2nccc(-c3cn(C)c4ccccc34)n2)c(OC)cc1N(C)CCN(C)C
inactive: viability, T/C (compound 0.000949 µM) 108% and 95% | viability, T/C (compound 0.003 µM) 93.5% and 105% | viability, T/C (compound 0.00949 µM) 107% and 85.4% | viability, T/C (compound 0.03 µM) 95.3% and 86.5% | viability, T/C (compound 0.0949 µM) 134% and 90.5% | viability, T/C (compound 0.3 µM) 100% and 111%
> 300 nM: IC50 (curve of compound)

C=C(F)C(=O)N1CCN(c2nc(OCC3CCCN3C)nc3c2CCN(c2cccc4cccc(Cl)c24)C3)CC1CC#N (stereo not drawn)
inactive: viability, T/C (compound 0.0316 µM) 101% and 104% | viability, T/C (compound 0.1 µM) 99.9% and 107% | viability, T/C (compound 0.316 µM) 96.3% and 110% | viability, T/C (compound 1 µM) 93.6% and 106% | viability, T/C (compound 3.16 µM) 116% and 114%
active: viability, T/C (compound 10 µM) 9.79% and 0.24%
6030 nM and 5890 nM: IC50 (curve of compound)

CC1(C)CCC(CN2CCN(c3ccc(C(=O)NS(=O)(=O)c4ccc(NCC5CCOCC5)c([N+](=O)[O-])c4)c(Oc4cnc5[nH]ccc5c4)c3)CC2)=C(c2ccc(Cl)cc2)C1
inactive: viability, T/C (compound 0.0316 µM) 88.4% and 102% | viability, T/C (compound 0.1 µM) 95.6% and 102% | viability, T/C (compound 0.316 µM) 97.5% and 98.5% | viability, T/C (compound 1 µM) 90.2% and 96.7% | viability, T/C (compound 3.16 µM) 86.7% and 87.4%
5250 nM and > 10000 nM: IC50 (curve of compound)

C=C(F)C(=O)N1CCN(c2nc(OCC3CCCN3C)nc3c2CCN(c2cccc4cccc(Cl)c24)C3)CC1CC#N (stereo not drawn) + CNC(=O)c1ccc(Nc2nc(OC3CCCC3)c3c(-c4ccc5nc(C)oc5c4)c[nH]c3n2)c(OC)c1
active: viability, T/C [12] 5.6% | viability, T/C [18] 1.3% | viability, T/C [24] 1.18% | viability, T/C [30] 0.72% | viability, T/C [36] 0.22% | viability, T/C [42] 0.29%
5780 nM: IC50 [1]
< 31.6 nM: IC50 [2] | IC50 [3] | IC50 [4] | IC50 [5] | IC50 [6]
inactive: viability, T/C [7] 95.2% | viability, T/C [8] 96.9% | viability, T/C [9] 90.9% | viability, T/C [10] 104% | viability, T/C [11] 106% | viability, T/C [13] 46% | viability, T/C [14] 38.4% | viability, T/C [15] 47.9% | viability, T/C [16] 46.2% | viability, T/C [17] 44.9% | viability, T/C [19] 48.4% | viability, T/C [20] 45.2% | viability, T/C [21] 46.6% | viability, T/C [22] 40.4% | viability, T/C [23] 42.1% | viability, T/C [25] 49.8% | viability, T/C [26] 50.5% | viability, T/C [27] 47.5% | viability, T/C [28] 42.1% | viability, T/C [29] 30.7% | viability, T/C [31] 42.7% | viability, T/C [32] 49.1% | viability, T/C [33] 41.2% | viability, T/C [34] 31.5% | viability, T/C [35] 20.8% | viability, T/C [37] 45.3% | viability, T/C [38] 43% | viability, T/C [39] 42.8% | viability, T/C [40] 33.2% | viability, T/C [41] 16.4%

O=c1[nH]cc(F)c(=O)[nH]1
inactive: viability, T/C (compound 0.0316 µM) 94% and 97.5% | viability, T/C (compound 0.1 µM) 95.6% and 111% | viability, T/C (compound 0.316 µM) 65.3% and 61.7% | viability, T/C (compound 1 µM) 44.4% and 46.8% | viability, T/C (compound 3.16 µM) 35.2% and 39.2% | viability, T/C (compound 10 µM) 39.2% and 43.4%
672 nM and 654 nM: IC50 (curve of compound)

COc1ccc([C@@H](O)c2cc(-c3ncnc4cc(N5CCOCC5)ccc34)c(F)cc2Cl)nn1 + CNC(=O)c1ccc(Nc2nc(OC3CCCC3)c3c(-c4ccc5nc(C)oc5c4)c[nH]c3n2)c(OC)c1
< 31.6 nM: IC50 [2] | IC50 [3] | IC50 [4] | IC50 [5] | IC50 [6]
> 10000 nM: IC50 [1]
inactive: viability, T/C [7] 90.8% | viability, T/C [8] 103% | viability, T/C [9] 99.1% | viability, T/C [10] 100% | viability, T/C [11] 114% | viability, T/C [12] 72.5% | viability, T/C [13] 45.1% | viability, T/C [14] 45.4% | viability, T/C [15] 43.4% | viability, T/C [16] 45.3% | viability, T/C [17] 43.2% | viability, T/C [18] 28.8% | viability, T/C [19] 46.3% | viability, T/C [20] 43.5% | viability, T/C [21] 39.4% | viability, T/C [22] 37.9% | viability, T/C [23] 32.4% | viability, T/C [24] 28% | viability, T/C [25] 40.1% | viability, T/C [26] 39.9% | viability, T/C [27] 38.9% | viability, T/C [28] 38.8% | viability, T/C [29] 32.2% | viability, T/C [30] 22.6% | viability, T/C [31] 49.7% | viability, T/C [32] 43.7% | viability, T/C [33] 41% | viability, T/C [34] 32.6% | viability, T/C [35] 30.6% | viability, T/C [36] 20.8% | viability, T/C [37] 49.1% | viability, T/C [38] 41.5% | viability, T/C [39] 38.8% | viability, T/C [40] 37.1% | viability, T/C [41] 27.2% | viability, T/C [42] 19.1%

C=CC(=O)N1CCN(c2nc(=O)n(-c3c(C)ccnc3C(C)C)c3nc(-c4c(O)cccc4F)c(F)cc23)C(C)C1 (stereo not drawn) + CNC(=O)c1ccc(Nc2nc(OC3CCCC3)c3c(-c4ccc5nc(C)oc5c4)c[nH]c3n2)c(OC)c1
> 10000 nM: IC50 [1] | IC50 [2] | IC50 [4]
inactive: viability, T/C [7] 89.8% | viability, T/C [8] 94.6% | viability, T/C [9] 92.8% | viability, T/C [10] 93.2% | viability, T/C [11] 94.6% | viability, T/C [12] 95.1% | viability, T/C [13] 53.8% | viability, T/C [14] 67.8% | viability, T/C [15] 60.8% | viability, T/C [16] 64% | viability, T/C [17] 55.1% | viability, T/C [18] 56.4% | viability, T/C [19] 49.7% | viability, T/C [20] 44.8% | viability, T/C [21] 46.9% | viability, T/C [22] 49.8% | viability, T/C [23] 53.1% | viability, T/C [24] 49.2% | viability, T/C [25] 58.5% | viability, T/C [26] 49.1% | viability, T/C [27] 50.4% | viability, T/C [28] 48.9% | viability, T/C [29] 54.6% | viability, T/C [30] 54.6% | viability, T/C [31] 43.2% | viability, T/C [32] 45.2% | viability, T/C [33] 40.1% | viability, T/C [34] 49.1% | viability, T/C [35] 59.3% | viability, T/C [36] 52.6% | viability, T/C [37] 43.5% | viability, T/C [38] 41.3% | viability, T/C [39] 46.3% | viability, T/C [40] 56.6% | viability, T/C [41] 53.6% | viability, T/C [42] 54.8%
< 31.6 nM: IC50 [3] | IC50 [5] | IC50 [6]
